Results reported in paper PMC9127750, “Structure-based design of CDC42 effector interaction inhibitors for the treatment of cancer” (Cell reports, 2022).
Where “and” joins values, the source holds several entries; their conditions need not be identical. Equal entries are not always repeated.

Test system: WM3248 melanoma cells, 486 antibodies
Assay: Reverse phase protein arrays (RPPA);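 for CA9.R.C RPPA level: ratio of treated to vehicle (0 µM) normalized linear protein signal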;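 for CD171.M.V RPPA level: ratio of treated to vehicle (0 µM) normalized linear protein signal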
Assay type: cell-based, Human
Conditions: 10 uM
Excerpt: Pellets were snap frozen in liquid nitrogen and shipped to MD Anderson Cancer Center core RPPA facility for RPPA analysis (Table S5). Three biological replicates for each sample were generated.
Nomenclatures on the RPPA heatmaps: name_of_antibody.species_of_antibody.status_of_antibody. V - antibody validated; C - validation of antibody in progress; Q - antibody nonspecific; E – under evaluation; antibodies raised in M - mouse, G - goat, R - rabbit, or T - rat.

With `CN(C)c1cccc(Nc2cc(-c3ccccc3)nc(C3CCNCC3)n2)c1` [ARN22089, N1,N1-dimethyl-N3-(6-phenyl-2-(piperidin-4-yl)pyrimidin-4-yl)benzene-1,3-diamine] the “RPPA signal, antibody VEGFR.2_pY1175.R.C, Average” value (average of 3 replicates) was 1.049, the “RPPA signal, antibody VHL.EPPK1.M.C, Average” value (average of 3 replicates) was 1.196 and the “RPPA signal, antibody VHL.R.C, Average” value (average of 3 replicates) was 1.035. The “RPPA signal, antibody Vinculin.M.V, Average” value (average of 3 replicates) was 0.966, the “RPPA signal, antibody WIPI1.R.C, Average” value (average of 3 replicates) was 1.121 and the “RPPA signal, antibody WIPI2.R.C, Average” value (average of 3 replicates) was 0.943. For the same compound, the “RPPA signal, antibody WTAP.R.V, Average” value (average of 3 replicates) was 1.119, the “RPPA signal, antibody Wee1.R.C, Average” value (average of 3 replicates) was 1.020 and the “RPPA signal, antibody Wee1_pS642.R.C, Average” value (average of 3 replicates) was 0.998. For the same compound, the “RPPA signal, antibody XBP.1.G.C, Average” value (average of 3 replicates) was 1.065, the “RPPA signal, antibody XIAP.R.C, Average” value (average of 3 replicates) was 1.012 and the “RPPA signal, antibody XPA.M.V, Average” value (average of 3 replicates) was 1.058. The “RPPA signal, antibody XRCC1.R.C, Average” value (average of 3 replicates) was 1.060, the “RPPA signal, antibody YAP_pS127.R.V, Average” value (average of 3 replicates) was 0.978 and the “RPPA signal, antibody YB1_pS102.R.V, Average” value (average of 3 replicates) was 0.958. The “RPPA signal, antibody YES1.R.V, Average” value (average of 3 replicates) was 1.020, the “RPPA signal, antibody YTHDF2.R.V, Average” value (average of 3 replicates) was 0.990 and the “RPPA signal, antibody YTHDF3.R.C, Average” value (average of 3 replicates) was 1.018. For the same compound, the “RPPA signal, antibody ZAP.70.R.V, Average” value (average of 3 replicates) was 1.001, the “RPPA signal, antibody ZEB1.R.V, Average” value (average of 3 replicates) was 1.024 and the “RPPA signal, antibody TSC1.R.C” value (individual replicates) was 0.828 and 0.939. For the same compound, the “RPPA signal, antibody TTF1.R.V” value (individual replicates) was 0.920 and 0.873 and 1.035, the “RPPA signal, antibody TUFM.R.V” value (individual replicates) was 1.384 and 1.533 and the “RPPA signal, antibody Tuberin.R.V” value (individual replicates) was 1.063 and 0.958 and 0.778. The “RPPA signal, antibody Tuberin_pT1462.R.V” value (individual replicates) was 1.389 and 0.896, the “RPPA signal, antibody Twist.M.C” value (individual replicates) was 1.022 and 1.114 and the “RPPA signal, antibody Tyro3.R.V” value (individual replicates) was 1.207 and 1.432 and 1.052. For the same compound, the “RPPA signal, antibody U.Histone.H2B.R.C” value (individual replicates) was 0.675 and 0.846 and 0.974, the “RPPA signal, antibody UBAC1.R.V” value (individual replicates) was 0.909 and 0.974 and 0.962 and the “RPPA signal, antibody UBQLN4.M.C” value (individual replicates) was 1.002 and 0.908 and 1.014. The “RPPA signal, antibody UGT1A.M.V” value (individual replicates) was 1.078 and 1.131 and 1.024, the “RPPA signal, antibody ULK1_pS757.R.C” value (individual replicates) was 0.907 and 0.952 and the “RPPA signal, antibody UQCRC2.M.C” value (individual replicates) was 0.984 and 1.001 and 0.779. For the same compound, the “RPPA signal, antibody UVRAG.R.C” value (individual replicates) was 0.941 and 0.945 and 1.016, the “RPPA signal, antibody VASP.R.V” value (individual replicates) was 0.853 and 0.873 and 0.935 and the “RPPA signal, antibody VAV1.R.C” value (individual replicates) was 0.917 and 0.930 and 0.971. The “RPPA signal, antibody VEGFR.2.R.V” value (individual replicates) was 0.830 and 0.863 and 1.064, the “RPPA signal, antibody VEGFR.2_pY1175.R.C” value (individual replicates) was 1.135 and 1.035 and 0.978 and the “RPPA signal, antibody VHL.EPPK1.M.C” value (individual replicates) was 1.361 and 1.047. For the same compound, the “RPPA signal, antibody VHL.R.C” value (individual replicates) was 1.048 and 1.060 and 0.997, the “RPPA signal, antibody Vinculin.M.V” value (individual replicates) was 0.834 and 1.032 and 1.034 and the “RPPA signal, antibody WIPI1.R.C” value (individual replicates) was 1.084 and 1.260 and 1.018. The “RPPA signal, antibody WIPI2.R.C” value (individual replicates) was 1.004 and 0.919 and 0.906, the “RPPA signal, antibody WTAP.R.V” value (individual replicates) was 0.973 and 1.303 and 1.081 and the “RPPA signal, antibody Wee1.R.C” value (individual replicates) was 0.837 and 1.193 and 1.031. For the same compound, the “RPPA signal, antibody Wee1_pS642.R.C” value (individual replicates) was 0.842 and 1.057, the “RPPA signal, antibody XBP.1.G.C” value (individual replicates) was 1.054 and 1.065 and 1.076 and the “RPPA signal, antibody XIAP.R.C” value (individual replicates) was 0.980 and 0.995 and 1.063. The “RPPA signal, antibody XPA.M.V” value (individual replicates) was 0.998 and 1.083, the “RPPA signal, antibody XPF.R.C” value (individual replicates) was 1.061 and 1.058 and 1.015 and the “RPPA signal, antibody XRCC1.R.C” value (individual replicates) was 1.098 and 1.017. For the same compound, the “RPPA signal, antibody YAP.R.C” value (individual replicates) was 1.046 and 1.136 and 1.017, the “RPPA signal, antibody YAP_pS127.R.V” value (individual replicates) was 0.857 and 1.020 and 1.056 and the “RPPA signal, antibody YB1_pS102.R.V” value (individual replicates) was 0.792 and 0.995. The “RPPA signal, antibody YES1.R.V” value (individual replicates) was 0.963 and 1.023, the “RPPA signal, antibody YTHDF2.R.V” value (individual replicates) was 0.973 and 0.926 and the “RPPA signal, antibody YTHDF3.R.C” value (individual replicates) was 1.046 and 1.052 and 0.954. The “RPPA signal, antibody ZAP.70.R.V” value (individual replicates) was 0.965 and 0.999, the “RPPA signal, antibody ZEB1.R.V” value (individual replicates) was 0.993 and 0.988 and the “C.Raf.R.C RPPA level” value (replicates) was 1.022 and 0.897 and 0.901. For the same compound, the “C.Raf_pS338.R.V RPPA level” value (replicates) was 0.937 and 0.962, the “CA9.R.C RPPA level” value (replicates) was 0.963 and 0.920 and 1.058 and the “CD2.M.C RPPA level” value (replicates) was 1.046 and 1.013. For the same compound, the “CD4.R.V RPPA level” value (replicates) was 0.841 and 0.982 and 0.984, the “CD5.M.C RPPA level” value (replicates) was 1.032 and 1.016 and the “CD20.R.C RPPA level” value (replicates) was 0.915 and 1.113 and 1.048. For the same compound, the “CD26.R.V RPPA level” value (replicates) was 0.862 and 0.937 and 1.046, the “CD29.M.V RPPA level” value (replicates) was 1.013 and 0.983 and 1.052 and the “CD31.M.V RPPA level” value (replicates) was 1.033 and 1.057 and 1.013. The “CD38.R.C RPPA level” value (replicates) was 0.895 and 0.963, the “CD44.R.C RPPA level” value (replicates) was 1.029 and 1.050 and the “CD45.M.V RPPA level” value (replicates) was 1.006 and 1.019. The “CD49b.M.V RPPA level” value (replicates) was 1.003 and 0.999, the “CD68.M.C RPPA level” value (replicates) was 1.022 and 1.011 and the “CD74.M.V RPPA level” value (replicates) was 0.984 and 1.053. For the same compound, the “CD134.R.V RPPA level” value (replicates) was 1.005 and 1.057 and 0.995, the “CD171.M.V RPPA level” value (replicates) was 0.591 and 0.987 and 1.115 and the “CDK1_pT14.R.C RPPA level” value (replicates) was 1.201 and 0.649 and 0.946. For the same compound, the “CDK9.R.V RPPA level” value (replicates) was 1.078 and 0.919, the “CDKN2A.R.C RPPA level” value (replicates) was 1.006 and 1.160 and the “CDT1.R.V RPPA level” value (replicates) was 0.973 and 1.157 and 1.014.
